The results in this text go back to ChEMBL document CHEMBL1140847, “Spectroscopic and calorimetric studies on the DNA recognition of pyrrolo[2,1-c][1,4]benzodiazepine hybrids” (Bioorg Med Chem, 2009).

Assay [1] is described as follows: Binding affinity to oligonucleotide duplex DNA D5 at drug-duplex molar ratio of 2:1 assessed as change in melting temperature by UV melting experiment.
Assay [2] in a line: Binding affinity to oligonucleotide duplex DNA D6 at drug-duplex molar ratio of 2:1 assessed as change in melting temperature by UV melting experiment.
A short description of assay [3]: Binding affinity to oligonucleotide duplex DNA D2b at drug-duplex molar ratio of 2:1 assessed as change in melting temperature by UV melting experiment.
Assay [4] in a line: Binding affinity to oligonucleotide duplex DNA D4 at drug-duplex molar ratio of 2:1 assessed as change in melting temperature by UV melting experiment.
Assay [5] is described as follows: Binding affinity to oligonucleotide hairpin duplex DNA D2d at 26 uM by UV titration experiment.
Assay [6] can be described thus: Binding affinity to oligonucleotide duplex DNA D7 at drug-duplex molar ratio of 2:1 assessed as change in melting temperature by UV melting experiment.
Assay [7] can be described thus: Binding affinity to oligonucleotide hairpin duplex DNA D2d by isothermal titration calorimetry. A general note: In ITC the heat of successive injections is recorded.
The nature of assay [8]: Binding affinity to oligonucleotide duplex DNA D8 at drug-duplex molar ratio of 2:1 assessed as change in melting temperature by UV melting experiment.
Assay [9] in a line: Binding affinity to oligonucleotide duplex DNA D2c at drug-duplex molar ratio of 2:1 assessed as change in melting temperature by UV melting experiment.
A short description of assay [10]: Binding affinity to oligonucleotide duplex DNA D1 at drug-duplex molar ratio of 2:1 assessed as change in melting temperature by UV melting experiment.
Assay [11] in a line: Binding affinity to oligonucleotide duplex DNA D2a at drug-duplex molar ratio of 2:1 assessed as change in melting temperature by UV melting experiment.
A short description of assay [12]: Binding affinity to oligonucleotide duplex DNA D2e at drug-duplex molar ratio of 2:1 assessed as change in melting temperature by UV melting experiment.
Assay [13] is described as follows: Binding affinity to oligonucleotide hairpin duplex DNA D2d by fluorescence titration experiment.
Assay [14] can be described thus: Binding affinity to oligonucleotide duplex DNA D2a at 10 uM by circular dichroism. Background: Circular dichroism is widely used to follow secondary structure.
Assay [15] can be described thus: Binding affinity to oligonucleotide duplex DNA D2a at 6.6 uM by circular dichroism.
Assay [16] is described as follows: Binding affinity to oligonucleotide duplex DNA D3 at drug-duplex molar ratio of 2:1 assessed as change in melting temperature by UV melting experiment.

Calls of active or inactive are those of the source. No cut-off for these calls is given here.

Turning to `COc1cc2c(cc1OCCCOc1ccc(-c3nc4ccc(N5CCN(C)CC5)cc4[nH]3)cc1)N=C[C@@H]1CCCN1C2=O`, the ΔTm in [1] is 32.5 °C; in assay [2] it was 34.5 °C; in assay [3], 39 °C; in assay [4] it was 34.3 °C; in assay [6], 27 °C; in [8] it was 0 °C. Besides, the thermal shift (ΔTm) in assay [9] came out at 9 °C; in [10], 10 °C; in assay [11] it was 33 °C; in assay [12], 37 °C. For the same compound, the result in assay [5] and in [14] was Active. For the same compound, the Ka in [7] is 8.9 ×10⁵ /M; in assay [13] it was 5.6 ×10⁶ /M.
With `COc1cc2c(cc1OCCCN1CCN(CCN3C(=O)c4cccc5cccc(c45)C3=O)CC1)N=C[C@@H]1CCCN1C2=O`, the ΔTm in assay [1] is 30.3 °C; in [2], 37.3 °C; in assay [3] it was 34.3 °C; in [4], 36.8 °C; in assay [6] it was 31.5 °C; in [16], 39.5 °C. Moreover, the ΔTm in assay [8] came out at 35 °C; in assay [9], 6.5 °C; in [10] it was 9 °C; in assay [11], 34 °C; in assay [12] it was 35 °C. The outcome in assay [5] and in assay [15] was Active. For the same compound, the Ka in assay [7] stood at 7.8 ×10⁵ /M; in [13] it was 3.8 ×10⁶ /M.

Usually ΔTm stands for the shift of the melting midpoint relative to a reference.
